Laboratory results published in patent publication US7572606B1 (Nereus Pharmaceuticals, Inc., priority 2005, dated 2009).
Values joined by “and” are separate entries in the source; they are usually repeats but may differ in a detail not shown here. Equal values may be shown once. Read-outs that look alike come from different tables or passages of the source.

Legend:
[1] = target: caspase-like (PGPH) activity of rabbit muscle 20S proteasome (Oryctolagus cuniculus, UniProt A0A5F9DQW2); test: In vitro inhibition of 20S proteasome, Z-LLE-AMC; details: purified rabbit 20S proteasome, Z-LLE-AMC
[2] = target: T1, trypsin-like activity of rabbit muscle 20S proteasome (Oryctolagus cuniculus, UniProt G1SWK8); test: In vitro inhibition of 20S proteasome, Boc-LRR-AMC; type: biochemical; details: under the conditions tested
T1 construct: EC50 Trypsin-like; other: purified rabbit 20S proteasome, Boc-LRR-AMC; other: under the conditions tested
T1 sequence (G1SWK8 1-271): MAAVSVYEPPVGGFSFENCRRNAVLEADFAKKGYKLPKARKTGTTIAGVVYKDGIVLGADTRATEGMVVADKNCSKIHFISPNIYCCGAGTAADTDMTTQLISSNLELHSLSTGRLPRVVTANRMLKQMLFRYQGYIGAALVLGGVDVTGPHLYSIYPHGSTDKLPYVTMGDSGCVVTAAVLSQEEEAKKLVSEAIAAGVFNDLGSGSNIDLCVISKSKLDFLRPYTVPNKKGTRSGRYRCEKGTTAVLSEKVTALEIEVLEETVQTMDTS

[3] = test system: NF-κB-mediated luciferase activity in HEK293 NF-κB/Luc cells; test: NF-κB-mediated luciferase reporter gene assay; type: cell-based, human; details: for luciferase activity upon TNF-α stimulation: pretreatment of NF-κB/Luc 293 cells; for EC50: Homo sapiens, HEK293, 1 h pretreatment, 6 h TNF-α stimulation, read-out: EC50
Procedure: The HEK293 NF-κB/luciferase reporter cell line is a derivative of the human embryonic kidney cell line (ATCC; CRL-1573) and carries a luciferase reporter gene under the regulation of 5×NF-κB binding sites. […] When performing the luciferase assay, the DMEM basal medium was replaced with phenol-red free DMEM basal medium and the G418 was omitted.
For NF-κB-mediated luciferase assays, HEK293 NF-κB/luciferase cells were seeded at 1.5×10^4 cells/well in 90 μl phenol-red free DMEM complete medium into Corning 3917 white opaque-bottom tissue culture plates. For Formulae II-2, II-4, II-5A and II-18, a 400 μM starting dilution was made in 100% DMSO and this dilution was used to generate an 8-point half log dilution series. […] For formula II-20, a 2.5 mM or 8 mM starting dilution was made in 100% DMSO and the final test concentrations ranged from 6.3 μM to 2.0 nM or 20 μM to 6.3 nM respectively. The plates were returned to the incubator for 1 hour. After 1 hr pretreatment, 10 μl of a 50 ng/ml TNF-α solution, prepared in the phenol-red free DMEM medium was added, and the plates were incubated for an additional 6 hours.
At the end of the TNF-α stimulation, 100 μl of Steady Lite HTS luciferase reagent (Packard Bioscience) was added to each well and the plates were left undisturbed for 10 min at room temperature before measuring the luciferase activity. The relative luciferase units (RLU) were measured by using a Fusion microplate fluorometer (Packard Bioscience).
NF-κB inducible luciferase activity was measured at 6 hours.

[4] = target: T2, chymotrypsin-like activity of rabbit muscle 20S proteasome (Oryctolagus cuniculus, UniProt G1T4Q9); test: In vitro inhibition of 20S proteasome, suc-LLVY-AMC
T2 sequence (G1T4Q9 1-263): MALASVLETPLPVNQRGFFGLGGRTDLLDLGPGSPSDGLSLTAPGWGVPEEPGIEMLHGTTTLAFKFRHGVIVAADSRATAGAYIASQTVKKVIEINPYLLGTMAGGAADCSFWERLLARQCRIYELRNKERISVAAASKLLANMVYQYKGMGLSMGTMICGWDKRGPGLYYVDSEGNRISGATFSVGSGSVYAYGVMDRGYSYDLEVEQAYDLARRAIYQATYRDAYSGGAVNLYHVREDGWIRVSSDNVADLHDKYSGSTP

RPMI 8226 = test: Cell growth inhibition, resazurin, 48 h; details: Homo sapiens, RPMI-8226, 48 h, RPMI 8226, 48 h drug exposure
Procedure: RPMI 8226 (CCL-155), HT-29 (HTB-38), and B16-F10 (CRL-6475) cells were purchased from ATCC. RPMI 8226 cells were maintained in RPMI 1640 media supplemented with 10% (v/v) FBS, 2 mM L-glutamine, 1 mM sodium pyruvate and Penicillin/Streptomycin at 100 IU/ml and 100 μg/ml, respectively. HT-29 cells were maintained in McCoys 5A supplemented with 10% (v/v) FBS, 2 mM L-glutamine, 1 mM sodium pyruvate, 1% (v/v) non-essential amino acids, 10 mM HEPES and Penicillin/Streptomycin at 100 IU/ml and 100 μg/ml, respectively. B16-F10 cells were maintained in DMEM supplemented with 10% (v/v) FBS, 2 mM L-glutamine, 10 mM HEPES and Penicillin/Streptomycin at 100 IU/ml and 100 μg/ml, respectively.
RPMI 8226 cells were seeded at 2×10^4 cells/well in 90 μl RPMI media containing 10% (v/v) FBS or 1% (v/v) FBS into 96 well black-walled, clear-bottom tissue culture plates. […] Formulae II-16, II-17 and Formula II-18 were serially diluted in media containing 1% or 10% FBS and added in triplicate to the test wells. […] The final concentration of Formula II-18 ranged from 2 μM to 630 pM.

U266 = test: Cell growth inhibition, resazurin, 48 h; type: cell-based, human; details: U266, 48 h drug exposure
HL-60/MX2 = test: Cell growth inhibition, resazurin, 48 h; details: HL-60/MX2, 48 h drug exposure
Procedure: The DNA binding agent Mitoxantrone was included as a control, as HL-60/MX2 cells are reported to be resistant to this chemotherapeutic agent (Harker W. G. et al. 1989).
(§1) Concentrations ranging from 6.32 μM to 2 nM were tested for II-2 and II-4.

[5] = test system: 20S proteasome chymotrypsin-like activity in RPMI 8226 cells; test: Chymotrypsin-like activity of 20S proteasomes in treated cells; type: cell-based, human; details: 1 hr, mean ± SD, n = 3
Procedure: RPMI 8226 (ATCC, CCL-155), the human multiple myeloma cell line, was cultured in RPMI 1640 medium supplemented with 2 mM L-glutamine, 100 units/ml penicillin, 100 μg/ml streptomycin, 1 mM sodium pyruvate and 10% heat inactivated fetal bovine serum at 37° C., 5% CO2 and 95% humidified air. […] DMSO was used as the vehicle control at a final concentration of 0.1%. Following 1 hr incubation of RMPI 8226 cells with the compounds, the cells were pelleted by centrifugation at 2,000 rpm for 10 sec at room temperature and washed 3× with ice-cold 1×Dulbecco's Phosphate-Buffered Saline (DPBS, Mediatech, Herndon, Va.). DPBS washed cells were lysed on ice for 15 min in lysis buffer (20 mM HEPES, 0.5 mM EDTA, 0.05% Triton X-100, pH 7.3) supplemented with protease inhibitor cocktail (Roche Diagnostics, Indianapolis, Ind.). Cell debris was pelleted by centrifugation at 14,000 rpm for 10 min, 4° C. and supernatants (=cell lysates) were transferred to a new tube. Protein concentration was determined by the BCA protein assay kit (Pierce Biotechnology, Rockford, Ill.). […] The total amount of protein used for each assay was 20 μg. The final concentration of Suc-LLVY-AMC and DMSO was 20 μM and 0.2%, respectively.

MES-SA/Dx5 = test: Cell growth inhibition, resazurin, 48 h; details: human, 48 h
Procedure: as §1

[6] = read-out: EC50 Caspase-like (PGPH)

Sequence of caspase-like (PGPH) activity of rabbit muscle 20S proteasome (A0A5F9DQW2 1-212): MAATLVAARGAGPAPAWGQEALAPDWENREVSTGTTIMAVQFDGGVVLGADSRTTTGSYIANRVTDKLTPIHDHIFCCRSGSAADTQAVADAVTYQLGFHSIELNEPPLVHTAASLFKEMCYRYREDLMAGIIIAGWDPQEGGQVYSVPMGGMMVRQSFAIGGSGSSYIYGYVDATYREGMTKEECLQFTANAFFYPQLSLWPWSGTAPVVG

Row | Compound | EC50 ([1]; read-out: EC50 Caspase-like) | inhibition of the trypsin-like activity of the 20S proteasome [2] | luciferase activity upon TNF-α stimulation [3] | also measured
1 | CC12OC(=O)C1(C(=O)C1C=CCCC1)NC(=O)C2CCCl (stereo not drawn) [Formula II-13C] | > 20000 nM | able to inhibit the trypsin-like activity |  | 
2 | C[C@@]12OC(=O)[C@]1([C@@H](O)[C@@H]1C=CCCC1)NC(=O)[C@@H]2CCO [Formula II-21] | 2300 nM | able to inhibit the trypsin-like activity | dose-dependent decrease of luciferase activity | EC50 [1, 6]: 2580 nM and 2330 nM
3 | CCC(=O)OCC[C@H]1C(=O)N[C@@]2([C@@H](O)[C@@H]3C=CCCC3)C(=O)O[C@@]12C [Formula II-22] | 1400 nM | able to inhibit the trypsin-like activity | dose-dependent decrease of luciferase activity | 
4 | CC[C@@]12OC(=O)[C@]1([C@@H](O)[C@@H]1C=CCCC1)NC(=O)[C@@H]2CCCl [Formula II-24C] | > 20000 nM | able to inhibit the trypsin-like activity | dose-dependent decrease of luciferase activity | EC50 ([4]; read-out: EC50 Chymotrypsin-like, purified rabbit 20S proteasome, suc-LLVY-AMC): 2200 nM
5 | C[C@@]12OC(=O)[C@]1([C@H](O)[C@@H]1C=CCCC1)NC(=O)[C@@H]2CCCl [Formula II-25] |  |  |  | EC50 (RPMI 8226): > 20000 nM; EC50 [3]: > 20000 nM; EC50 (U266; Homo sapiens, U-266, 48 h): > 20000 nM
6 | C[C@@]12OC(=O)[C@]1([C@@H](O)[C@@H]1C=CCCC1)NC(=O)[C@H]2CCCl [Formula II-26] |  | able to inhibit the trypsin-like activity | dose-dependent decrease of luciferase activity | 
7 | C[C@@H]1C(=O)N[C@@]2([C@@H](O)[C@@H]3C=CCCC3)C(=O)O[C@@]12C [Formula II-28] | > 20000 nM |  |  | 
8 | C[C@@]12OC(=O)[C@]1([C@@H](O)[C@@H]1C=CCCC1)NC(=O)[C@@H]2CCN=[N+]=[N-] [Formula II-29] |  | able to inhibit the trypsin-like activity | dose-dependent decrease of luciferase activity | EC50 [1, 6]: 535 nM and 520 nM
9 | CCC[C@H]1C(=O)N[C@@]2([C@@H](O)[C@@H]3C=CCCC3)C(=O)O[C@@]12C [Formula II-30] | 1300 nM | able to inhibit the trypsin-like activity | dose-dependent decrease of luciferase activity | EC50 [1, 6]: 956 nM
10 | C[C@@]12OC(=O)[C@]1(C(=O)C1=CC(O)CCC1)NC(=O)[C@]2(C)CCCl (stereo partly drawn) [Formula II-31] |  |  |  | EC50 [4]: > 20000 nM
11 | COC(=O)CCSC(=O)[C@]1([C@@H](O)[C@@H]2C=CCCC2)NC(=O)[C@H](CCCl)[C@]1(C)O [Formula II-44] | 1400 nM | able to inhibit the trypsin-like activity | dose-dependent decrease of luciferase activity | 
12 | C[C@@]12OC(=O)[C@]1([C@@H](O)[C@H]1CCC[C@H](Cl)[C@H]1O)NC(=O)[C@@H]2CCCl [Formula IV-3C] | > 20000 nM |  |  | EC50 (RPMI 8226): > 20000 nM; EC50 [3]: > 20000 nM; EC50 (U266; Homo sapiens, U-266, 48 h, read-out: EC50): 7760 nM; EC50 (U266; read-out: EC50): 8290 nM
13 | COC(=O)CCSC(=O)C1(C(O)C2C=CCCC2)NC(=O)C2CCOC21C (stereo not drawn) [Formula VI-1A] | 7900 nM and 8700 nM | able to inhibit the trypsin-like activity |  | 
14 | O=C1c2c(O)ccc(O)c2C(=O)c2c(NCCNCCO)ccc(NCCNCCO)c21 [Mitoxantrone, reference compound] |  |  |  | EC50 (HL-60/MX2): 827 nM and 1340 nM and 1170 nM; EC50 (HL-60/MX2; Homo sapiens, HL60/MX2, 48 h): 1410 nM
15 | CC(C)[C@H](O)[C@@]12NC(=O)[C@H](C)[C@@H]1OC2=O [Omuralide, reference compound] |  |  |  | % inhibition of the chymotrypsin-like activity of 20S proteasomes in RPMI 8226 cell lysates ([5]; 1 nM): 5 ± 9%; % inhibition of the chymotrypsin-like activity of 20S proteasomes in RPMI 8226 cell lysates ([5]; 5 nM): 8 ± 9%; % inhibition of the chymotrypsin-like activity of 20S proteasomes in RPMI 8226 cell lysates ([5]; 10 nM): 4 ± 9%; % inhibition of the chymotrypsin-like activity of 20S proteasomes in RPMI 8226 cell lysates ([5]; 50 nM): 17 ± 11%; % inhibition of the chymotrypsin-like activity of 20S proteasomes in RPMI 8226 cell lysates ([5]; 100 nM): 32±8%; % inhibition of the chymotrypsin-like activity of 20S proteasomes in RPMI 8226 cell lysates ([5]; 500 nM): 68 ± 11%; % inhibition of the chymotrypsin-like activity of 20S proteasomes in RPMI 8226 cell lysates ([5]; 1,000 nM): 80 ± 8%; % inhibition of the chymotrypsin-like activity of 20S proteasomes in RPMI 8226 cell lysates ([5]; 10,000 nM): 93 ± 1%
16 | CC(=O)O[C@H]1C(=O)[C@@]2(C)[C@H]([C@H](OC(=O)c3ccccc3)[C@]3(O)C[C@H](OC(=O)[C@H](O)[C@@H](NC(=O)c4ccccc4)c4ccccc4)C(C)=C1C3(C)C)[C@]1(OC(C)=O)CO[C@@H]1C[C@@H]2O [Paclitaxel, reference compound] |  |  |  | % cytotoxicity (MES-SA/Dx5): 78 ± 1%
